Drawing on patent publication US20040166137A1, “Hetero-substituted benzimidazole compounds and antiviral uses thereof” (priority 2002, published 2004), this text covers CC50 and IC50 for 22 molecules.

The CC50 is the concentration giving 50% cytotoxicity. By IC50 is commonly meant the concentration that gives 50% inhibition.

Structures are written as SMILES. Like-named read-outs stand apart in the source and are kept apart here. Where only a bound is given, the exact number is not on record here.

Data set [1] can be described thus: XTT cytotoxicity assay on uninfected Hep2 cells. The format is cell-based. To be noted: human. On the procedure: Uninfected confluent monolayers (seeded at 2.2×10^4 cells/well) of Hep2 cells were grown in microtiter wells (96-well plates) in EMEM (Eagle Minimum Essential Medium w/o L-glutamine [Bio Whittaker Cat. No. 12-125F] with 3% fetal bovine serum (FBS; which had been heat inactivated for 30 minutes at 56° C.; Bio Whittaker Cat. No. 14-501F), antibiotics (penicillin/streptomycin; Bio Whittaker Cat. No. 17-602E) added at 1%, and glutamine added at 1% (complete EMEM). The plates were incubated for 24 hours and used for antiviral assays and cytotoxicity assays.
Cytotoxicity assays were conducted by first removing all medium from the well containing uninfected Hep2 cells, adding 100 μl complete EMEM, and then adding hetero-substituted benzimidazole compounds (eight 3-fold dilutions with 100 μM concentration as the highest final concentration). Complete EMEM (50 μl) was added to each well instead of virus and the plates were incubated in a CO2 incubator at 37° C. for 48 hours.
At 48 hours, the cytotoxicity assays were developed by adding to each well 50 μl of XTT (1 mg/ml in PBS) containing 0.01-0.02 mM of the electron coupling agent phenazine methosulfate (PMS). The plates were incubated for 2-4 hours at 37° C. and then read in a 96-well plate reader at 450 nm. Plotting the % average OD of treated wells compared to the cell control vs. compound concentration generated dose response curves. CC50 (50% inhibitory cytotoxic concentration) values for each compound were then calculated from these curves. […]
On the technique in general: Tetrazolium dyes change colour on reduction, which living cells bring about.

The next data set relates to RSV. Description: Antiviral assay (PRA): inhibition of RSV syncytial plaque formation on Hep2 cell monolayers. The format is cell-based. To be noted: human respiratory syncytial virus, read-out: PRA (IC50). On the procedure:
The lower the observed level of fusion, the greater the antiviral activity of the compound was determined to be. Uninfected confluent monolayers (seeded at 2.2×10^4 cells/well) of Hep2 cells were grown in microtiter wells (96-well plates) in EMEM (Eagle Minimum Essential Medium w/o L-glutamine [Bio Whittaker Cat. […] Bio Whittaker Cat. No. 14-[…]), antibiotics (penicillin/streptomycin; Bio Whittaker Cat. […] The plates were incubated for 24 hours and used for antiviral assays and cytotoxicity assays. To prepare Hep2 cells for addition to uninfected cells, cultures of […] infected Hep2 cells were washed with DPBS (Dulbecco's Phosphate Buffered Saline w/o calcium or magnesium; Bio Whittaker Cat. […] Gibco Life Technologies Cat. No. 15040-017). The cells were spun for 10 minutes and resuspended in 3% FBS. Cell counts were performed using a hemacytometer. Persistent cells were added to the uninfected Hep2 cells. The antiviral assay was conducted by first removing all medium from the wells containing uninfected Hep2 cells, adding 100 μl complete EMEM, then adding hetero-substituted benzimidazole compounds (eight 3-fold dilutions with 20 μM concentration as the highest final concentration) in 50 μl complete EMEM. Approximately 50 […] plaque forming units (PFU) of RSV in 50 μl was added per well and the plates were incubated in a CO2 incubator at 37° C. for 48 hours. Each plate contained uninfected control wells and infected untreated control wells for calculation of % inhibition (EC50) for each concentration. After incubation, cells in control wells were checked for fusion centers, medium was removed from the wells followed by addition to each well of either Crystal Violet stain or XTT. With respect to Crystal Violet, approximately 50μl 0.25% Crystal Violet stain in methanol was added to each well. The wells were rinsed immediately, to remove excess stain, and were allowed to dry. The number of syncytia per well were then counted, using a dissecting microscope. For antiviral assays at 48 hours post infection, cells in control wells were checked for syncytial plaques. Medium was removed from the wells followed by addition of approximately 50 Al Crystal Violet stain (0.25% Crystal Violet, 0.25% Giemsa dissolved in 10% formaldehyde, 70% methanol, and 20% H2O). The wells were incubated at room temperature for 5 minutes, rinsed with H2O to remove excess stain, and allowed to dry. The number of syncytia per well were counted using a dissecting microscope. The 50% inhibitory concentration (EC50) for each compound was calculated from the dose response curve. The compounds listed in Tables 1-2 have been screened for inhibitory activity against RSV.

The mark [2] stands for this setting: HEp-2, Table 1, RSV-infected Hep2 cells, 48 hours, syncytia counted.
The mark [3] stands for this setting: HEp-2, Table 2, RSV-infected Hep2 cells, 48 hours, syncytia counted.

Take `OCCN(CCO)CCNCc1nc2cccnc2n1Cc1nc2ccccc2[nH]1` [compound 1, 2-[(2-{[3-(1H-Benzoimidazol-2-ylmethyl)-3H-imidazo[4,5-b]pyridin-2-ylmethyl]-amino}-ethyl)-(2-hydroxy-ethyl)-amino]-ethanol]: the 50% cytotoxic concentration (CC50) at 48 h in data set [1] (Table 1, uninfected Hep2 cells, 48 hours, read-out: XTT (CC50)) was at least 100000 nM. In the data set with RSV (HEp-2, 48 h), the IC50 is 160 nM.

Molecule `c1ccc2[nH]c(Cn3c(CNCCN4CCOCC4)nc4cccnc43)nc2c1` [compound 2, [3-(1H-Benzoimidazol-2-ylmethyl)-3H-imidazo[4,5-b]pyridin-2-ylmethyl]-(2-morpholin-4-yl-ethyl)-amine] came in with a CC50 at 48 h in data set [1] of at least 100000 nM. In addition, in the data set on RSV (setting [2]), the IC50 worked out at 240 nM. Taken in the same sequence, the figures for `COCCN(C)Cc1nc2cccnc2n1Cc1nc2ccccc2[nH]1` [compound 3, [3-(1H-Benzoimidazol-2-ylmethyl)-3H-imidazo[4,5-b]pyridin-2-ylmethyl]-(2-methoxy-ethyl)-methyl-amine] were at least 100000 nM and 150 nM. In data set [1], `c1ccc2[nH]c(Cn3c(CNCCCN4CCOCC4)nc4cccnc43)nc2c1` [compound 4, [3-(1H-Benzoimidazol-2-ylmethyl)-3H-imidazo[4,5-b]pyridin-2-ylmethyl]-(3-morpholin-4-yl-propyl)-amine] registered a CC50 at 48 h of at least 100000 nM. Also, the IC50 in the data set on RSV (setting [2]) is 190 nM.

`CN1CCN(CCCNCc2nc3cccnc3n2Cc2nc3ccccc3[nH]2)CC1` [compound 5, [3-(1H-Benzoimidazol-2-ylmethyl)-3H-imidazo[4,5-b]pyridin-2-ylmethyl]-[3-(4-methyl-piperazin-1-yl)-propyl]-amine] showed a CC50 at 48 h in data set [1] of at least 100000 nM. For the same molecule, the IC50 with RSV (setting [2]) stood at 9 nM. In data set [1], `OCCN(CCO)CCCNCc1nc2cccnc2n1Cc1nc2ccccc2[nH]1` [compound 6, 2-[(3-{[3-(1H-Benzoimidazol-2-ylmethyl)-3H-imidazo[4,5-b]pyridin-2-ylmethyl]-amino}-propyl)-(2-hydroxy-ethyl)-amino]-ethanol] displayed a CC50 at 48 h of at least 100000 nM. In addition, the IC50 with RSV (setting [2]) was determined as 190 nM. In data set [1], `c1ccc2[nH]c(Cn3c(CNC4CCCC4)nc4cccnc43)nc2c1` [compound 7, [3-(1H-Benzoimidazol-2-ylmethyl)-3H-imidazo[4,5-b]pyridin-2-ylmethyl]-cyclopentyl-amine] had a CC50 at 48 h of at least 100000 nM. The IC50 with RSV (setting [2]) was determined as 4 nM. Taken in the same sequence, the figures for `CC(C)N(Cc1ccccc1)Cc1nc2cccnc2n1Cc1nc2ccccc2[nH]1` [compound 8, [3-(1H-Benzoimidazol-2-ylmethyl)-3H-imidazo[4,5-b]pyridin-2-ylmethyl]-benzyl-isopropyl-amine] were at least 100000 nM and 5 nM. On the same counts, the results for `CC(C)N(C)Cc1nc2cccnc2n1Cc1nc2ccccc2[nH]1` [compound 9, [3-(1H-Benzoimidazol-2-ylmethyl)-3H-imidazo[4,5-b]pyridin-2-ylmethyl]-isopropyl-methyl-amine] are at least 100000 nM and 3 nM. Taken in the same sequence, the figures for `CC(C)N(Cc1nc2cccnc2n1Cc1nc2ccccc2[nH]1)C(C)C` [compound 12, [3-(1H-Benzoimidazol-2-ylmethyl)-3H-imidazo[4,5-b]pyridin-2-ylmethyl]-diisopropyl-amine] were at least 100000 nM and 5 nM. As to `c1ccc2[nH]c(Cn3c(CN4CCOCC4)nc4cccnc43)nc2c1` [compound 13, 3-(1H-Benzoimidazol-2-ylmethyl)-2-morpholin-4-ylmethyl-3H-imidazo[4,5-b]pyridine], the cytotoxic concentration (CC50) at 48 h in data set [1] was at least 100000 nM. Besides, the IC50 with RSV (setting [3]) is 1 nM. On the same counts, the results for `FC(F)(F)c1ccc(N2CCN(Cc3nc4cccnc4n3Cc3nc4ccccc4[nH]3)CC2)cc1` [compound 14, 3-(1H-Benzoimidazol-2-ylmethyl)-2-[4-(4-trifluoromethyl-phenyl)-piperazin-1-ylmethyl]-3H-imidazo[4,5-b]pyridine] are at least 100000 nM and 5 nM. On the same counts, the results for `Oc1cc2c(cc1O)CN(Cc1nc3cccnc3n1Cc1nc3ccccc3[nH]1)CC2` [compound 15, 2-[3-(1H-Benzoimidazol-2-ylmethyl)-3H-imidazo[4,5-b]pyridin-2-ylmethyl]-1,2,3,4-tetrahydro-isoquinoline-6,7-diol] are at least 100000 nM and 13 nM. Taken in the same sequence, the figures for `c1ccc2[nH]c(Cn3c(CN4CCNCC4)nc4cccnc43)nc2c1` [compound 16, 3-(1H-Benzoimidazol-2-ylmethyl)-2-piperazin-1-ylmethyl-3H-imidazo[4,5-b]pyridine] were at least 100000 nM and 120 nM.

`O=C(Cc1ccccc1)N1CCN(Cc2nc3cccnc3n2Cc2nc3ccccc3[nH]2)CC1` [compound 17, 1-{4-[3-(1H-Benzoimidazol-2-ylmethyl)-3H-imidazo[4,5-b]pyridin-2-ylmethyl]-piperazin-1-yl}-2-phenyl-ethanone]: the CC50 at 48 h in data set [1] was at least 100000 nM. In addition, the IC50 in the data set on RSV (setting [3]) worked out at 20 nM.

In the case of `CC(=O)N1CCN(Cc2nc3cccnc3n2Cc2nc3ccccc3[nH]2)CC1` [compound 18, 1-{4-[3-(1H-Benzoimidazol-2-ylmethyl)-3H-imidazo[4,5-b]pyridin-2-ylmethyl]-piperazin-1-yl}-ethanone], in data set [1], the CC50 at 48 h is at least 100000 nM. In addition, the IC50 with RSV (setting [3]) is 4 nM. Consider `Cn1cnc(S(=O)(=O)N2CCN(Cc3nc4cccnc4n3Cc3nc4ccccc4[nH]3)CC2)c1` [compound 19, 3-(1H-Benzoimidazol-2-ylmethyl)-2-[4-(1-methyl-1H-imidazole-4-sulfonyl)-piperazin-1-ylmethyl]-3H-imidazo[4,5-b]pyridine], for which the CC50 at 48 h in data set [1] is at least 100000 nM.

In data set [1], `O=C(Nc1ccc2c(c1)OCCCO2)N1CCN(Cc2nc3cccnc3n2Cc2nc3ccccc3[nH]2)CC1` [compound 20, 4-[3-(1H-Benzoimidazol-2-ylmethyl)-3H-imidazo[4,5-b]pyridin-2-ylmethyl]-piperazine-1-carboxylic acid (3,4-dihydro-2H-benzo[b][1,4]dioxepin-7-yl)-amide] displayed a CC50 at 48 h of at least 100000 nM. Besides, the IC50 with RSV (setting [3]) amounted to 5 nM. On the same counts, the results for `O=C(c1ccco1)N1CCN(Cc2nc3cccnc3n2Cc2nc3ccccc3[nH]2)CC1` [compound 21, {4-[3-(1H-Benzoimidazol-2-ylmethyl)-3H-imidazo[4,5-b]pyridin-2-ylmethyl]-piperazin-1-yl}-furan-2-yl-methanone] are at least 100000 nM and 13 nM.

`OCC1CCCN1Cc1nc2cccnc2n1Cc1nc2ccccc2[nH]1` (stereo not shown) [compound 22, {1-[3-(1H-Benzoimidazol-2-ylmethyl)-3H-imidazo[4,5-b]pyridin-2-ylmethyl]-pyrrolidin-2-yl}-methanol] came in with a CC50 at 48 h in data set [1] of at least 100000 nM. The IC50 with RSV (setting [3]) was 2 nM.

As for `OCCC1CCCCN1Cc1nc2cccnc2n1Cc1nc2ccccc2[nH]1` (stereo not shown) [compound 23, 2-{1-[3-(1H-Benzoimidazol-2-ylmethyl)-3H-imidazo[4,5-b]pyridin-2-ylmethyl]-piperidin-2-yl}-ethanol], the half-maximal cytotoxic concentration (CC50) at 48 h in data set [1] was at least 100000 nM. Moreover, in the data set on RSV (setting [3]), the IC50 worked out at 10 nM. On the same counts, the results for `c1ccc2c(c1)CN(Cc1nc3cccnc3n1Cc1nc3ccccc3[nH]1)C2` [compound 27, 3-(1H-Benzoimidazol-2-ylmethyl)-2-(1,3-dihydro-isoindol-2-ylmethyl)-3H-imidazo[4,5-b]pyridine] are at least 100000 nM and 20 nM.
